From US11931424B2, “Combination MCL-1 inhibitors with anti-body drug conjugates” (Gilead Sciences, Inc., priority 2021, dated 2024)

Test system: panel of breast cancer cell lines
Experiment: Compound A with targeted agents and chemotherapies, 72-hour in vitro proliferation assays
Assay type: cell-based
[1] = BT-20 cell line, compound A × partner, 72-hour proliferation
[2] = CAL-51 cell line, compound A × partner, 72-hour proliferation
[3] = CAL-85-1 cell line, compound A × partner, 72-hour proliferation
[4] = CAL-120 cell line, compound A × partner, 72-hour proliferation
[5] = CAL-148 cell line, compound A × partner, 72-hour proliferation
[6] = CAMA-1 cell line, compound A × partner, 72-hour proliferation
[7] = DU-4475 cell line, compound A × partner, 72-hour proliferation
[8] = EVSA-T cell line, compound A × partner, 72-hour proliferation
[9] = HCC38, compound A × partner, 72-hour proliferation
[10] = HCC70, compound A × partner, 72-hour proliferation
[11] = HCC1143 cell line, compound A × partner, 72-hour proliferation
[12] = HCC1569, compound A × partner, 72-hour proliferation
[13] = HCC1806, compound A × partner, 72-hour proliferation
[14] = HCC1937, compound A × partner, 72-hour proliferation
[15] = HCC1954, compound A × partner, 72-hour proliferation
[16] = HCC2218, compound A × partner, 72-hour proliferation
[17] = HDQ-P1, compound A × partner, 72-hour proliferation
[18] = HMC-1-8, compound A × partner, 72-hour proliferation
[19] = JIMT-1, compound A × partner, 72-hour proliferation
[20] = AU565 cell line, compound A × partner, 72-hour proliferation
[21] = KPL-1, compound A × partner, 72-hour proliferation

CC1(C)CCC(CN2CCN(c3ccc(C(=O)NS(=O)(=O)c4ccc(NCC5CCOCC5)c([N+](=O)[O-])c4)c(Oc4cnc5[nH]ccc5c4)c3)CC2)=C(c2ccc(Cl)cc2)C1 [ABT-199]
Best CI (72 h): 1.23
Bliss Volume (72 h): −1.15
HSA volume (72 h): −2.69
Loewe Volume (72 h): −0.11
Synergy Score (72 h): 3.31
Best CI [1]: 0.62
Bliss Volume [1]: 6.83
HSA volume [1]: 5.47
Loewe Volume [1]: 5.94
Synergy Score [1]: 13.39
Best CI [2]: 0.58
Bliss Volume [2]: 0.44
HSA volume [2]: −2.62
Loewe Volume [2]: 0.83
Synergy Score [2]: 0.56
Best CI [3]: 0.83
Bliss Volume [3]: −1.49
HSA volume [3]: −2.11
Loewe Volume [3]: −1.27
Synergy Score [3]: 1.08
Best CI [4]: 0.85
Bliss Volume [4]: 3.85
HSA volume [4]: −1.21
Loewe Volume [4]: −0.16
Synergy Score [4]: 0.62
Best CI [5]: 0.47
Bliss Volume [5]: 3.32
HSA volume [5]: −0.66
Loewe Volume [5]: 3.11
Synergy Score [5]: 2.74
Best CI [6]: 0.38
Bliss Volume [6]: 8.30
HSA volume [6]: 4.83
Loewe Volume [6]: 8.10
Best CI [7]: 1.15
Bliss Volume [7]: 10.43
HSA volume [7]: 8.46
Loewe Volume [7]: 10.37
Synergy Score [7]: 10.64
Best CI [8]: 1.07
Bliss Volume [8]: 1.29
HSA volume [8]: −0.86
Loewe Volume [8]: 0.99
Synergy Score [8]: 4.67
Best CI [9]: 0.77
Bliss Volume [9]: −3.14
HSA volume [9]: −0.71
Loewe Volume [9]: 0.50
Synergy Score [9]: 5.65
Best CI [10]: 0.43
Bliss Volume [10]: 15.68
HSA volume [10]: 14.46
Loewe Volume [10]: 15.44
Synergy Score [10]: 28.95
Best CI [11]: 0.82
Bliss Volume [11]: 2.43
HSA volume [11]: −2.65
Loewe Volume [11]: −1.50
Synergy Score [11]: 3.01
Best CI [12]: 0.51
Bliss Volume [12]: 15.86
HSA volume [12]: 14.50
Loewe Volume [12]: 16.04
Synergy Score [12]: 14.35
Best CI [13]: 0.83
Bliss Volume [13]: 3.80
HSA volume [13]: 4.70
Loewe Volume [13]: 5.23
Synergy Score [13]: 6.31
Best CI [14]: 0.22
Bliss Volume [14]: 8.42
HSA volume [14]: 2.68
Loewe Volume [14]: 4.59
Synergy Score [14]: 1.43
Best CI [15]: 0.60
Bliss Volume [15]: 12.55
HSA volume [15]: 10.72
Loewe Volume [15]: 12.18
Synergy Score [15]: 17.16
Best CI [16]: 0.43
Bliss Volume [16]: 7.82
HSA volume [16]: 8.19
Loewe Volume [16]: 7.59
Synergy Score [16]: 15.06
Best CI [17]: 0.04
Bliss Volume [17]: 1.77
HSA volume [17]: 0.38
Loewe Volume [17]: 1.74
Synergy Score [17]: 0.96
Best CI [18]: 0.90
Bliss Volume [18]: 6.70
HSA volume [18]: 5.15
Loewe Volume [18]: 6.08
Synergy Score [18]: 9.51
Best CI [19]: 0.14
Bliss Volume [19]: −1.41
HSA volume [19]: −2.60
Loewe Volume [19]: −1.93
Synergy Score [19]: 0.53
Synergy Score (MCF7 cells, Compound A × partner agent, 72-hour proliferation): 1.43

CC1(C)CCC(c2ccc(Cl)cc2)=C(CN2CCN(c3ccc(C(=O)NS(=O)(=O)c4ccc(N[C@H](CCN5CCOCC5)CSc5ccccc5)c(S(=O)(=O)C(F)(F)F)c4)cc3)CC2)C1 [ABT-263]
Best CI [20]: 0.61
Bliss Volume [20]: 9.56
HSA volume [20]: 3.63
Loewe Volume [20]: 8.42
Synergy Score [20]: 14.69
Best CI [1]: 0.05
Bliss Volume [1]: 36.91
HSA volume [1]: 37.77
Loewe Volume [1]: 37.81
Synergy Score [1]: 84.06
Best CI [2]: 0.09
Bliss Volume [2]: 18.29
HSA volume [2]: 17.50
Loewe Volume [2]: 18.72
Synergy Score [2]: 39.59
Best CI [3]: 0.17
Bliss Volume [3]: 13.36
HSA volume [3]: 16.06
Loewe Volume [3]: 15.97
Synergy Score [3]: 29.64
Best CI [4]: 0.21
Bliss Volume [4]: 15.10
HSA volume [4]: 15.51
Loewe Volume [4]: 16.04
Synergy Score [4]: 24.96
Best CI [5]: 0.10
Bliss Volume [5]: 28.25
HSA volume [5]: 22.50
Loewe Volume [5]: 27.96
Synergy Score [5]: 51.82
Best CI [6]: 0.14
Bliss Volume [6]: 19.67
HSA volume [6]: 17.49
Loewe Volume [6]: 19.32
Synergy Score [6]: 41.66
Best CI [7]: 0.48
Bliss Volume [7]: 24.62
HSA volume [7]: 22.37
Loewe Volume [7]: 22.67
Synergy Score [7]: 35.34
Best CI [8]: 0.36
Bliss Volume [8]: 15.42
HSA volume [8]: 14.19
Loewe Volume [8]: 14.63
Synergy Score [8]: 28.16
Best CI [9]: 0.13
Bliss Volume [9]: 27.10
Synergy Score [9]: 37.11
Best CI [10]: 0.03
Bliss Volume [10]: 44.63
HSA volume [10]: 44.49
Loewe Volume [10]: 44.97
Synergy Score [10]: 97.06
Best CI [11]: 0.05
Bliss Volume [11]: 27.56
HSA volume [11]: 26.07
Loewe Volume [11]: 27.51
Synergy Score [11]: 43.54
Best CI [12]: 0.13
Bliss Volume [12]: 27.53
HSA volume [12]: 24.55
Loewe Volume [12]: 26.18
Synergy Score [12]: 46.64
Best CI [13]: 0.03
Bliss Volume [13]: 45.40
HSA volume [13]: 46.37
Loewe Volume [13]: 46.26
Synergy Score [13]: 90.68
Best CI [14]: 0.18
Bliss Volume [14]: 26.87
HSA volume [14]: 22.28
Loewe Volume [14]: 26.31
Synergy Score [14]: 43.69
Best CI [15]: 0.03
Bliss Volume [15]: 36.37
HSA volume [15]: 36.78
Loewe Volume [15]: 37.10
Synergy Score [15]: 76.44
Best CI [16]: 0.07
Bliss Volume [16]: 28.59
HSA volume [16]: 29.77
Loewe Volume [16]: 28.05
Synergy Score [16]: 59.76
Best CI [17]: 0.09
Bliss Volume [17]: 27.19
HSA volume [17]: 27.41
Loewe Volume [17]: 28.17
Synergy Score [17]: 52.33
Best CI [18]: 0.20
Bliss Volume [18]: 13.21
HSA volume [18]: 10.36
Loewe Volume [18]: 11.80
Synergy Score [18]: 21.09
Best CI [19]: 0.18
Bliss Volume [19]: 18.71
HSA volume [19]: 12.60
Loewe Volume [19]: 14.35
Synergy Score [19]: 19.55
Best CI [21]: 0.14
Synergy Score [21]: 13.50
